Test results reported in US8536160B2, “Azaheterocyclyl derivatives of androstanes and androstenes as medicaments for cardiovascular disorders” (priority 2006, dated 2013).
Where a name gives a salt, the structure may show the parent alone. Read-outs that look alike come from different tables or passages of the source.

How the values were obtained:
anesthetized guinea-pig = test: Inotropic effect and lethal dose, slow intravenous infusion in anesthetized guinea-pig; assay type: in vivo; design: Maximum dose infused: unit not given here; details: for Emax / ED80 / ED (max): Cavia porcellus, iv, 1.5 h; for Emax / ED80 / ED (max) / Maximum dose infused / Dead/treated: slow i.v. infusion over 90 minutes; for Emax / ED80 / ED (max) / % decrease from Emax after 20 min from the end of the infusion / Lethal dose/ED80 (safety ratio) / Dead/treated: anesthetized guinea-pig; for Emax: maximum increase in contractile force, read-out: Emax % increase in +dP/dTmax; for ED80: read-out: ED80 (inotropic potency, dose increasing +dP/dTmax by 80%); for ED (max): read-out: EDmax (dose inducing maximum positive inotropic effect); for % decrease from Emax after 20 min from the end of the infusion: duration of the inotropic effect; for Maximum dose infused: maximum dose infused in the survived animals; for Lethal dose/ED80 (safety ratio): calculated for the died animals
fresh rat hepatocytes = test: Metabolism in fresh rat hepatocytes; details: for % of compound metabolized after 60 minutes: test item nominal concentration 45 μM, 2590000-3084000 hepatocytes/ml
[1] = molecular target: Dog Kidney Na+, K+-ATPase (Canis lupus familiaris, UniProt P50997); test: Inhibition of the enzymatic activity of purified Na+,K+-ATPase (hydrolysis of 32P-ATP); assay type: biochemical
[2] = test system: hypertensive ouabain-sensitive rats (OS rats); test: Systolic blood pressure fall in hypertensive ouabain-sensitive rats (OS rats); assay type: in vivo, rat; details: 10 μg/kg/day by mouth for four weeks
Procedure: The ability of these compounds to lower blood pressure was tested by using an animal model with induced hypertension, in particular, rats made hypertensive by chronic infusion of ouabain, according to Ferrari P., et al. J. Pharm. Exp. Ther. 1998, 285, 83-94.
The procedure adopted to test the antihypertensive activity of the compounds on the above mentioned model was the following: systolic blood pressure (SBP) and heart rate (HR) were measured by an indirect tailcuff method. The blood pressure lowering effect was measured in hypertensive ouabain-sensitive rats. The compound, suspended in Methocel 0.5% (w/v), was administered daily at the dose of 10 μg/kg/day by mouth for four weeks. SBP and HR were measured weekly 6 hours after the treatment. The comparison are ouabain sensitive rats (OS rats) and non hypertensive rats (control), both treated only with Methocel 0.5% (w/v). As shown in the following Table 4, treatment with a compound of the present invention lowers the blood pressure of OS rats (170 mm Hg) to almost the level of control rats (150 mm Hg).

[3] = read-out: Na+, K+-ATPase Inhibition IC50
[4] = dog kidney enzyme, hydrolysis of 32P-ATP in presence and absence of compound, read-out: Na+, K+-ATPase Inhibition IC50

Structure (SMILES) | Emax (anesthetized guinea-pig) | ED80 (anesthetized guinea-pig) | ED (max) (anesthetized guinea-pig) | % decrease from Emax after 20 min from the end of the infusion (anesthetized guinea-pig) | Maximum dose infused (anesthetized guinea-pig) | % of compound metabolized after 60 minutes (fresh rat hepatocytes) | Dead/treated (anesthetized guinea-pig) | IC50 ([1]; Na+, K+-ATPase Inhibition IC50) | further results
C[C@]12CC[C@H]3[C@@H](C/C(=N\O)[C@@]4(O)CC(=NO[C@@H]5CCNC5)CC[C@]34C)[C@@H]1CCC2=O (mixture of isomers) [I-bp, (E,Z) 3-[3-(R)-Pyrrolidinyl]oxyimino-5α-hydroxy-6-(E)-hydroxyiminoandrostane-17-one hydrochloride] | 226% | 0.37 µmol/kg | 1.8 µmol/kg | 100% | 4.3 | 8% |  |  | 
C[C@]12CCC(=NOCCN)CC1C(=O)C[C@@H]1[C@@H]2CC[C@]2(C)C(=O)CC[C@@H]12.Cl (mixture of isomers) [compd 22b, (EZ) 3-(2-aminoethoxyimino)androstane-6,17-dione hydrochloride, reference compound] | 182% | 1.82 µmol/kg | 5.74 µmol/kg | 100% | 32.1 | 95% | 7/8 |  | Lethal dose/ED80 (safety ratio) (anesthetized guinea-pig): 22.6; metabolism in fresh rat hepatocytes within 60 minutes (in words) (fresh rat hepatocytes; 45 μM): almost completely metabolized
CC12CCC3C(C(=O)C(CO)C4CC(=NOC5CCNC5)CCC43C)C1CCC2=O (mixture of isomers) [I-cs, (E,Z) 3-[3′-(R)-Pyrrolidinyl]oxyimino-6α-hydroxymethylandrostane-7,17-dione fumarate] |  |  |  |  |  | 5% |  |  | IC50 ([1]; Na+, K+-ATPase Inhibition IC50, dog kidney enzyme, hydrolysis of 32P-ATP in presence and absence of compound): 13 nM
CC12CCC3C(CC(O)C4CC(=NOC5CCNC5)CCC43C)C1CCC2=O (single isomer, unassigned) [I-an, hydrochloride] |  |  |  |  |  | 21% |  | 580 nM | 
CC12CCC3C(C(O)C(CO)C4CC(=NOC5CCNC5)CCC43C)C1CCC2=O (single isomer, unassigned) [I-dk, hydrochloride] |  |  |  |  |  | 5% |  | 5.8 nM | 
CC12CCC3C(CC(=O)C4CC(=NOC5CCNC5)CCC43C)C1CCC2=O (mixture of isomers) [I-ae, (E,Z) 3-[3-(R)-Pyrrolidinyl]oxyiminoandrostane-6,17-dione hydrochloride] | 147% | 2.28 µmol/kg | 4.26 µmol/kg | 74% | 6.4 |  | 0/3 | 26 nM | 
C=C1C[C@@H]2[C@H](CC[C@]3(C)C(=O)CC[C@@H]23)[C@@]2(C)CC[C@@H](SC3CCNC3)CC12.O=C(O)/C=C/C(=O)O (mixture of isomers) [I-db, 3α-[3-(RS)-Pyrrolidinylthio]-6-methyleneandrostane-17-one fumarate] |  |  |  |  |  | 25% |  |  | HR beats/min. [2]: 387 beats/min.; HR % beats/min ([2]; change versus OS rats on vehicle): +6.6%; SBP mmHg ([2]; measured 6 hours after treatment, tail-cuff): 153.0 mmHg; SBP - % ([2]; versus OS rats on vehicle): 10.3%; SBP - mmHg (fall) ([2]; versus OS rats on vehicle): 17.0 mmHg; IC50 [1, 3]: 20000 nM
CON=C1CC2C3CCC(=O)C3(C)CCC2C2(C)CCC(=NOC3CCNC3)CC12O (single isomer, unassigned) [I-bw] |  |  |  |  |  | 24% |  |  | IC50 [1, 4]: 39 nM
CC12CCC3C(C(O)CC4CC(=NOC5CCNC5)CCC43C)C1CCC2=O (mixture of isomers) [I-cj, (E,Z) 3-[3′-(R)-Pyrrolidinyl]oxyimino-7α-hydroxyandrostane-17-one fumarate] |  |  |  |  |  | 20% |  | 220 nM | 
C#CC1CC2C3CCC(=O)C3(C)CCC2C2(C)CCC(=NOC3CCNC3)CC12 (mixture of isomers) [I-bb, (E,Z) 3-[3′-(R)-Pyrrolidinyl]oxyimino-6α-ethynylandrostane-17-one hydrochloride] | 147% | 3.7 µmol/kg | 6.39 µmol/kg | 29% | 6.5 |  | 0/3 | 110 nM | 
CC12CCC3C(CC(CCO)C4CC(=NOC5CCNC5)CCC43C)C1CCC2=O (mixture of isomers) [I-bc, (E,Z) 3-[3′-(R)-Pyrrolidinyl]oxyimino-6α-(2-hydroxyethyl)androstane-17-one hydrochloride] | 183% | 1.89 µmol/kg | 5.08 µmol/kg | 28% | 6.3 |  | 0/3 |  | IC50 [1, 4]: 58 nM
CC12CCC3C(CC(O)C4CC(=NOC5CCNC5)CCC43C)C1CCC2=O (single isomer, unassigned) [I-dp, hydrochloride] | 358% | 3.92 µmol/kg | 43.6 µmol/kg |  | 148 |  | 2/2 | 1200 nM | Lethal dose/ED80 (safety ratio) (anesthetized guinea-pig): 49
C[C@]12CC[C@H]3[C@@H](CC[C@@]4(O)CC(=NO[C@@H]5CCNC5)CC[C@]34C)[C@@H]1CCC2=O (mixture of isomers) [I-am, (E,Z) 3-(3-(R)-Pyrrolidinyl)oxyimino-5α-hydroxyandrostane-17-one hemifumarate] | 221% | 3.87 µmol/kg | 15.3 µmol/kg | 100% | 25.2 | 12% | 0/3 | 210 nM | 
CON=C1CC2C3CCC(=O)C3(C)CCC2C2(C)CCC(=NOC3CCNC3)CC12 (single isomer, unassigned) [I-be] |  |  |  |  |  | 42% |  | 260 nM | 
C=C1CC2C/C(=N/O[C@@H]3CCNC3)CC[C@]2(C)[C@H]2CC[C@]3(C)C(=O)CC[C@H]3[C@H]12.Cl (stereo partly drawn) [I-cg, (E,Z) 3-[3′-(R)-Pyrrolidinyl]oxyimino-7-methyleneandrostane-17-one hydrochloride] |  |  |  |  |  | 28% |  |  | IC50 [1, 3]: 240 nM
C=C1C[C@H]2[C@@H]3CCC(=O)[C@@]3(C)CC[C@@H]2[C@@]2(C)CCC(=NO[C@@H]3CCNC3)C[C@]12O (mixture of isomers) [I-bh, (E,Z) 3-[3′-(R)-Pyrrolidinyl]oxyimino-5α-hydroxy-6-methylenandrostane-17-one hydrochloride] | 173% | 1.91 µmol/kg | 3.8 µmol/kg | 63% | 6.4 |  | 0/3 | 12 nM | 
CC1CC2CC(=NOC3CCNC3)CCC2(C)C2CCC3(C)C(=O)CCC3C12 (mixture of isomers) [I-cl, (E,Z) 3-[3′-(R)-Pyrrolidinyl]oxyimino-7β-methylandrostane-17-one hydrochloride] | 187% | 3.34 µmol/kg | 6.34 µmol/kg | 7% | 6.4 |  | 0/3 | 150 nM | 
